Measurements as given in paper PMC9481597 (Communications Biology, 2022).
Several values for one entry are separate records, joined by “and”; a condition that tells them apart may be missing. Equal values may be shown once. Entries after “also recorded” stand apart in the source; their conditions may differ. Read-outs that look alike come from different tables or passages of the source. Marks after values point to notes of the source that are not given here.

What was measured:
MPro^1–196 [1] = target: T1, MPro^1–196 (Severe acute respiratory syndrome coronavirus 2, UniProt P0DTC1); set-up: species or system SARS-CoV-2
T1 construct: MPro^1–196 spans residues 1–196; 6His, spacer and TEV protease cleavage site (N, cleaved yes); made in house; host or cells: E. coli BL21-DE3

MPro^M = tested on: MPro^M; set-up: method as in earlier work; conditions: in presence of GC373; supplement numbering; cited from earlier work
[2] = target: T2, MPro^1–199 (monomeric catalytic domain) (Severe acute respiratory syndrome coronavirus 2, UniProt P0DTC1); assay type: binding, SARS-CoV-2; set-up: made in house; host or cells: E. coli BL21-DE3
MPro^WT [3] = target: T3, MPro^WT (Severe acute respiratory syndrome coronavirus 2, UniProt P0DTC1); assay type: binding; conditions: protein with 2x inhibitor, diluted to 20 µM in 5% acetic acid
T3 construct: The full-length wild-type (MPro^WT) was expressed and purified; made in house; host or cells: E. coli BL21-DE3

MPro^WT [4] = target: T3, MPro^WT; experiment: Monomer-dimer equilibrium of MPro^WT in the presence of inhibitor; set-up: species or system SARS-CoV-2; conditions: predicted because of thermodynamic stabilization of the dimer upon inhibitor binding
Procedure: Enzyme kinetics were carried out as described previously in reference 1. ^(a)Calculated from Lineweaver-Burk plot. ^(b)Calculated from plot of v vs [E].

[5] = target: T2, MPro^1–199 (monomeric catalytic domain); assay type: binding, SARS-CoV-2
MPro^10–306 [6] = target: T4, MPro^10–306 (Severe acute respiratory syndrome coronavirus 2, UniProt P0DTC1); set-up: species or system SARS-CoV-2
T4 construct: MPro^10–306 spans the region 10–306 of MPro followed by GP-6His; GP-6His (C, cleaved yes); made in house; host or cells: E. coli BL21-DE3

MPro^1–196 [7] = target: T1, MPro^1–196; assay type: binding; conditions: NMV: 50 µM mixtures; GC373: high concentrations; diluted to 20 µM in 5% acetic acid
MPro^10–306 [8] = target: T4, MPro^10–306; assay type: binding, SARS-CoV-2
[9] = tested on: MPro^M (full-length monomeric double mutant E290A, R298A); conditions: ITC, cited from earlier work
MPro^1–196 [10] = target: T1, MPro^1–196; assay type: binding, SARS-CoV-2
MPro^1–199 [11] = target: T5, MPro^1–199 (Severe acute respiratory syndrome coronavirus 2, UniProt P0DTC1); assay type: binding; conditions: for protein-inhibitor adduct in mass spectra: NMV: 50 µM mixtures, GC373: high concentrations, diluted to 20 µM in 5% acetic acid
T5 construct: made in house; host or cells: E. coli BL21-DE3

MPro^1–199 [12] = target: T5, MPro^1–199; set-up: species or system SARS-CoV-2
MPro^1–199 [13] = target: T5, MPro^1–199; assay type: biochemical, SARS-CoV-2
MPro^10–306 [14] = target: T4, MPro^10–306; assay type: binding; conditions: 50 µM mixtures, diluted to 20 µM in 5% acetic acid

Compound | Kdimer.app (MPro^1–196 [1]) [µM] | N [2] | ΔG [2] [kcal/mol] | ΔH [2] [kcal/mol] | ΔS [2] [cal/mol/K] | protein-inhibitor adduct in mass spectra (MPro^WT [3]) | Kdimer.app (MPro^WT [4]) | Kdimer.app (MPro^10–306 [6]) | protein-inhibitor adduct in mass spectra (MPro^1–196 [7]) | N (MPro^1–196 [10]) | ΔG (MPro^1–196 [10]) [kcal/mol] | ΔH (MPro^1–196 [10]) [kcal/mol] | ΔS (MPro^1–196 [10]) [cal/mol/K] | protein-inhibitor adduct in mass spectra (MPro^1–199 [11]) | Kdimer.app (MPro^1–199 [12]) [µM] | apparent Kdimers (MPro^1–199 [12]) | dimer contribution (in monomer units) (MPro^1–199 [12]) [%] | faster sedimenting peak, share of signal (MPro^1–199 [12]) | further results
CC(C)C[C@H](NC(=O)OCc1ccccc1)C(=O)N[C@H](C=O)C[C@@H]1CCNC1=O [GC373] | >1200 | 0.9 ± 0.03 | -6.2 | -2.4 ± 0.1 | 12.7 | not observed | ≤2^(d) µM | >>1200 µM | only the molecular ions of the unmodified protein | 0.88 ± 0.09 | -6 | -1.48 ± 0.24 | 15 | only the molecular ions of the unmodified protein | 1200 ± 200 | more than 175 µM | 20 | about 14% | dimer formation in SV-AUC (MPro^1–196 [1]): no dimer was observed; Kdimer.app (MPro^M): 6.2^(e^) µM; Kd ([2]; read-out: Kd = Ki): 32 ± 5 µM; fold increase in Kd (weaker binding) relative to MPro^WT [5]: 200 to 300 fold; net ΔG difference relative to MPro^WT [5]: about 3 kcal/mol; Kd ([5]; read-out: Kd range): 32 to 45 µM; N (MPro^10–306 [8]): 0.54 ± 0.03; ΔG (MPro^10–306 [8]): -6 kcal/mol; ΔH (MPro^10–306 [8]): -1.38 ± 0.1 kcal/mol; ΔS (MPro^10–306 [8]): 15.3 cal/mol/K; Kd (MPro^10–306 [8]; read-out: Kd = Ki): 44 ± 8 µM; N [9]: 1.07 ± 0.02; ΔG [9]: -7.2 kcal/mol; ΔH [9]: -6.0 ± 0.2 kcal/mol; ΔS [9]: 3.9 cal/mol/K; Kd ([9]; read-out: Kd = Ki): 6.2 µM and 6.13 µM; Kd (MPro^1–196 [10]; read-out: Kd = Ki): 45 ± 20 µM
CC(C)(C)[C@H](NC(=O)C(F)(F)F)C(=O)N1C[C@H]2[C@@H]([C@H]1C(=O)N[C@H](C#N)C[C@@H]1CCNC1=O)C2(C)C [NMV, nirmatrelvir] | 510 ± 0.05 | 0.97 ± 0.04 | -6.5 | -3.9 ± 0.1 | 8.8 | nearly equal distribution of MPro^WT and the MPro^WT-NMV adduct | ≤2^(d) µM | >510 µM | adducts were observed | 1.05 ± 0.03 | -6.7 | -1.8 ± 0.1 | 16.3 | adducts were observed | 180 ± 0.01 | more than 175 µM | 52 | 68% | dimer contribution (in monomer units) (MPro^1–196 [1]): 33%; dimer formation in SV-AUC (MPro^10–306 [6]): no detectable dimer formation; catalytic activity with the FRET substrate upon addition of inhibitor (MPro^1–199 [13]): inhibited; protein-inhibitor adduct in mass spectra (MPro^10–306 [14]): very little binding; also recorded: adducts were observed; stability of protein-adducts (MPro^1–199 [11]; 20 µM in acetic acid at ambient temperature (Figs. 7d and S10b)): stable for days; slower sedimenting (2.31S) species, share of integrated signal (MPro^1–199 [12]): 32%
